Data taken from patent US20090197279A1, “MICROTUBULE SYNTHESIS AS A BIOMARKER” (KINEMED, INC., priority 2005, published 2009).

System: primary rat neurons
Test: Microtubule dynamics in glutamate-stimulated cultures of primary rat neurons
Assay type: cell-based
Details: parallel experiments, data not shown
Experimental: Rat brain hippocampus neuronal cells were obtained from Cambrex Bio Science (Walkersville, Md.). The neurons were grown in Neurobasal medium supplemented with 2 mM Glutamine, 100 U/ml penicillin/streptomycin- and 2% B27 in a humidified atmosphere of 10% CO2 at 37° C. for 14 days on a poly-D-lysine and laminin coated 10 cm^2 tissue culture dish.
During experimental manipulation of neural connectivity, the dynamic responses of dendritic microtubules to various stimuli are likely to differ from those of axonal shafts or of the cell body. In order to detect such differential responses by use of the invention disclosed herein, we cultured primary neurons from rat brain hippocampi and labeled newly synthesized tubulin by adding 5% ^2H2O in culture media for 24 hours. After separation of tubulin dimers and polymers in cytosolic extracts, we captured axonal growth cone and dendritic microtubules by sequential binding to immunoaffinity columns reactive with tau and MAP2, respectively, leaving only somatic and axonal shaft microtubules in the unbound fraction (FIG. 5A). Tubulin was purified further from each fraction, and label incorporation into Ala was measured by GC/MS (FIG. 5B). […] Free Ala in culture media was >80% equilibrated with ^2H2O (not shown). […]

## N[C@@H](CCC(=O)[O-])C(=O)[O-].[K+].[K+] [glutamate, potassium L-glutamate]
  microtubule label incorporation pattern compared with in vivo: identical results
